From patent US10745355B2, “Anti-cancer compounds” (THE UNIVERSITY OF SYDNEY, priority 2015, dated 2020)

Experiments:
U251 = experiment: Alamar blue cell viability assay, U251 cells; format: cell-based; conditions: Homo sapiens, U-251; 72 hours of treatment; mean±SEM, three independent experiments
Protocol: (§1) U87 and U251 cell lines were obtained from the European Collection of Cell Cultures (ECACC) through CellBank Australia. U87-EGFRvIII cell line was obtained from their lab of origin (Nishikawa et al., 1994, Proc Natl Acad Sci USA 91: 7727-7731) and tested for EGFR amplification and mutation by immunoblotting and flow cytometry. Cells were cultured in DMEM medium (Invitrogen by Life Technologies, Carlsbad, Calif., USA) supplemented with 10% FBS (Sigma-Aldrich) at 37° C. and 5% CO2. Primary gliomaspheres (RN1, classical; WK1, mesenchymal) were derived from glioblastoma specimens (Day et al., 2013, Cancers 5: 357-371; Day et al., 2013, Cancer Cell 23: 238-248), maintained in StemPro NSC serum-free media supplemented with EGF and FGF (all Life Technologies), and grown on matrigel-coated flasks (Pollard et al., 2009, Cell Stem Cell 4: 568-580).
(§2) Cell viability was determined using Alamar blue assay after 72 hours of treatment (Table 2). EC50 values were calculated using non-linear regression on Graph Pad Prism version 5. c Log P values calculated using ChemBioDraw Software. Results are mean±SEM from three independent experiments performed in triplicates.

U87 [1] = experiment: Alamar blue cell viability assay, U87 cells; format: cell-based; conditions: Homo sapiens, U-87 MG; 72 hours of treatment; mean±SEM, three independent experiments
Protocol: as §1, §2

U87vIII [2] = experiment: Alamar blue cell viability assay, U87vIII cells; format: cell-based; conditions: 72 hours of treatment; mean±SEM, three independent experiments
Protocol: as §1, §2

Porcine brain tubulin = target: T1, Porcine brain tubulin (Sus scrofa, UniProt P02550+P02554); experiment: Fluorescence-based tubulin polymerisation assay; format: biochemical; conditions: 37° C., FIG. 10A
T1 construct: purchased Cytoskeleton, Colo., USA (Tubulin Polymerisation Assay kit); host or cells: porcine brain (tissue-purified)
Protocol: FIGS. 10A-10D. […] (10A) Compound 1-08 inhibits tubulin polymerisation in vitro. Data are expressed as mean from at least 3 independent experiments; each data point was performed in triplicates. (10B) U87 cells treated with compound 1-08 (24 h) were stained with Alexa488-labelled anti-β-tubulin antibody (green) or DAPI (blue). Treatment profoundly disturbed the microtubule network and caused formation of multinucleated cell (white arrows). White scale bar represents 50 μm. Multinucleated cells were manually counted and at least 200 cells were counted for each sample. Data in the bar graph (10C) are expressed as mean±SEM (n=3; * P<0.05, *** P<0.001; 1-way ANOVA followed by Newman-Keuls posttest). (10D) U87 cells were treated with compound 1-08 (48 h), tubulin and DNA were stained as in (10B). Treatment with 1-08 caused defective mitotic spindle formation. Representative images from 3 independent experiments are shown. White scale bar represents 2 μm.
The effect of compound 1-08 on tubulin polymerisation and mitotic spindle formation was also investigated. The fluorescence-based tubulin polymerisation assay was conducted in the final volume of 55 μL using the Tubulin Polymerisation Assay kit (Cytoskeleton, Colo., USA) as per the manufacturer's instructions. Porcine brain tubulin was incubated with test compounds (paclitaxel, vinblastine and compound 1-08) at 37° C. and fluorescence was measured using FLUOstar Omega microplate reader (BMG Labtech, Ortenberg, Germany; excitation at 355 nm and emission at 460 nm). […] To test whether compound 1-08 alters microtubules in vivo, U87 glioblastoma cells were treated with compound 1-08 and the effect on the microtubules was determined by immunofluorescence staining of β-tubulin. […] The consequence of microtubule depolymerisation induced by compound 13 was disrupted spindle assembly (FIG. 10D). In untreated U87 cells undergoing mitosis, microtubules are assembled into bipolar spindles (control images).

glioma cell lines = experiment: Viability (Alamar Blue) and cytotoxicity (ToxiLight) in glioma cell lines; format: cell-based; conditions: 10 nM-10 μM, 72 hours
Protocol: Cells were treated with SC-38 (10 nM-10 μM) for 72 hours. Cells were subjected to viability testing (left, Alamar Blue viability assay, Invitrogen) and supernatant harvested for bioluminescent cytotoxicity analysis (right, ToxiLight™ bioassay kit, Lonza).

[3] = test system: RN1 gliomaspheres (classical); experiment: AlamarBlue cell viability assay, RN1 gliomaspheres; format: cell-based; conditions: 72 h of drug treatment, FIG. 11A
Protocol: (§3) FIGS. 11A-11B. Efficacy of SC-38 (referred to as “CMPD1”), compound 1-08 (referred to as “cmpd 13”), compound 1-18 (referred to as “cmpd 7”), and compound 1-38 (referred to as “cmpd 10”) in primary gliomaspheres representing two glioblastoma subtypes. (11A) RN1, classical, and (11B) WK1, mesenchymal. Cellular efficacy (EC50) of test compounds was determined using AlamarBlue cell viability assay after 72 h of drug treatment. Data are mean±SEM from 3 independent experiments performed in triplicate.
as §1, with “568-580). […]” for “568-580).”

U87vIII [4] = experiment: Annexin-FITC/7-AAD apoptosis assay, U87vIII cells; format: cell-based; conditions: 48 hours treatment
Protocol: (§4) FIGS. 4A-4D. […] U87 (4A-4B) and U87vIII (4C-4D) cells were treated with SC-38 for 48 hours and stained with Annexin-FITC/7-AAD. Apoptotic cells were visualized using the MUSE cell analyzer (Millipore).
(§5) FIGS. 6A-6D. […] U87 (A B) (6A-6B) and U87vIII (6C-6D) cells were treated with compound 1-08 for 48 hours and stained with Annexin-FITC/7-AAD. Apoptotic cells were visualized using the MUSE cell analyzer (Millipore). Results are means±SEM from 3 independent experiments. One-way ANOVA followed by Dunnet post-test was used to calculate statistical significance (***P<0.001).
(§6) U87 (FIGS. 4, A-B) and U87vIII (FIG. 4, C-D) cells were treated with SC-38 for 48 hours and stained with Annexin-FITC/7-AAD. Apoptotic cells were visualized using the MUSE cell analyzer (Millipore). Results are means±SEM from 3 independent experiments. One-way ANOVA followed by Dunnet post-test was used to calculate statistical significance (**P<0.01, ***P<0.001)
as §6, with “6,” for “4,”, “compound 1-08” for “SC-38”, “three” for “3”, “(***P<0.001).” for “(**P<0.01, ***P<0.001)”

[5] = test system: WK1 gliomaspheres (mesenchymal); experiment: AlamarBlue cell viability assay, WK1 gliomaspheres; format: cell-based; conditions: 72 h of drug treatment, FIG. 11B
Protocol: as §3, §1
The effect of SC-38, and compounds 1-08, 1-18 and 1-38 in a cell viability assay employing patient-derived gliomaspheres was also investigated. RN1 gliomaspheres representing glioblastoma of the classical subtype were most responsive to the treatment (FIG. 11, where SC-38 is referred to as “CMPD1”, compound 1-08 is referred to as “compound 13”, compound 1-18 is referred to as “compound 7”, and compound 1-38 is referred to as “compound 10”).

U87 [6] = experiment: Annexin-FITC/7-AAD apoptosis assay, U87 cells; format: cell-based; conditions: 48 hours treatment
Protocol: as §4, §5, §6
as §6, with “6,” for “4,”, “compound 1-08” for “SC-38”, “three” for “3”, “(***P<0.001).” for “(**P<0.01, ***P<0.001)”

[7] = Brain uptake in BALB/c mice; format: in vivo; conditions: 10 mg/kg intraperitoneally, brains harvested at 30 and 60 min, HPLC
Protocol: BALB/c mice were injected intraperitoneally with tested inhibitor (10 mg/kg) and brains harvested at 30 and 60 min. Solid-phase extraction was performed using brain homogenates and the amount of the test compound was determined with HPLC. Lapatinib data are from Polli, J. W. et al. “The Role of Efflux and Uptake Transporters in N-{3-Chloro-4-[(3-fluorobenzyl)oxy]phenyl}-6-[5-({[2-(methylsulfonyl)ethyl]amino}methyl)-2-furyl]-4-quinazolinamine (GW572016, Lapatinib) Disposition and Drug Interactions”, Drug Metabolism and Disposition 36, 695-701 (2008).

T1 sequence (P02550 whole entry): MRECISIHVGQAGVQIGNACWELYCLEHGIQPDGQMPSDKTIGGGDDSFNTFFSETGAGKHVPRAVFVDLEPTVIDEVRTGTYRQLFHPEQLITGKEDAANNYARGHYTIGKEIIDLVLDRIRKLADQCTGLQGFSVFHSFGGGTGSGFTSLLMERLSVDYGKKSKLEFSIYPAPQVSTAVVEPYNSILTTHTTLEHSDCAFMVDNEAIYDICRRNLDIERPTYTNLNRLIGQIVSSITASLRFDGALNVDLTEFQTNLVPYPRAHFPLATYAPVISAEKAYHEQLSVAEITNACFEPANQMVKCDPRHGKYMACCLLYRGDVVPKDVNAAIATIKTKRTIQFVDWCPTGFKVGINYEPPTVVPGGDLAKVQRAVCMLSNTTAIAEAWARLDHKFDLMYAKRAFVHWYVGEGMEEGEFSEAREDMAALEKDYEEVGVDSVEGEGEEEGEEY
T1 sequence (P02554 whole entry): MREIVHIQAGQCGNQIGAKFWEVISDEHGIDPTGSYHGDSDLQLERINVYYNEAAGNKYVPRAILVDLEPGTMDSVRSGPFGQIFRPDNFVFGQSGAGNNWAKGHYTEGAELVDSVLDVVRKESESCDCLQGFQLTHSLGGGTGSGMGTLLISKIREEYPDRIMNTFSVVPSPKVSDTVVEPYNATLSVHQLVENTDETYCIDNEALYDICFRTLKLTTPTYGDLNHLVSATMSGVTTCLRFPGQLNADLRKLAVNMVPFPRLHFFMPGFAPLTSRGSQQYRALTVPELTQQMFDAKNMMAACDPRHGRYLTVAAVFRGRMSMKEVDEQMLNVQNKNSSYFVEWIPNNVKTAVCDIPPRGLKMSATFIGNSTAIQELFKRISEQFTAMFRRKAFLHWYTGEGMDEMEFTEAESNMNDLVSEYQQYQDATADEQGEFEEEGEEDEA

Row | SMILES | EC50 (U251) [µM] | EC50 (U87 [1]) [µM] | EC50 (U87vIII [2]) [µM] | further results
1 | COc1ncc(-c2ccc(CCCC(=O)Nc3ccc(O)cc3)cc2)cn1 [Compound 1-19, N-(4-hydroxyphenyl)-4-(4-(2-methoxypyrimidin-5-yl)phenyl)butanamide] | > 10 | > 10 | > 10 | –
2 | CC(=O)O[C@H]1C(=O)[C@@]2(C)[C@H]([C@H](OC(=O)c3ccccc3)[C@]3(O)C[C@H](OC(=O)[C@H](O)[C@@H](NC(=O)c4ccccc4)c4ccccc4)C(C)=C1C3(C)C)[C@]1(OC(C)=O)CO[C@@H]1C[C@@H]2O [paclitaxel] | – | – | – | effect on tubulin polymerisation compared to control (Porcine brain tubulin): enhanced tubulin polymerisation
3 | O=C(CCCc1ccc(-c2ccc(F)nc2)cc1)Nc1ccc(O)cc1 [Compound 1-21, 4-(4-(6-fluoropyridin-3-yl)phenyl)-N-(4-hydroxyphenyl)butanamide] | > 10 | 4.8 ± 1.2 | > 10 | –
4 | O=C(CCCc1ccc(-c2ccc(F)nc2F)cc1)Nc1ccc(O)cc1 [Compound 1-22, 4-(4-(2,6-difluoropyridin-3-yl)phenyl)-N-(4-hydroxyphenyl)butanamide] | 1.65 ± 0.1 | 2.9 ± 0.9 | 3.4 ± 0.4 | –
5 | O=C(CCCc1ccc(-c2ccccc2F)cc1)Nc1ccc(O)cc1 [SC-38, reference compound] | 0.43 ± 0.1 | 0.38 ± 0.1 | 0.68 ± 0.1 | viability of glioma cell lines (glioma cell lines; Alamar Blue): decreases viability of glioma cell lines; cytotoxicity (ToxiLight) (glioma cell lines; supernatant): selectively cytotoxic; EC50 [3]: 0.26 µM; apoptosis, U87vIII (U87vIII [4]): induced apoptosis; EC50 [5]: 0.91 µM; apoptosis, U87 (U87 [6]): induced apoptosis
6 | O=C(CCCc1ccc(-c2cncnc2)cc1)Nc1ccc(O)cc1 [Compound 1-01, N-(4-hydroxyphenyl)-4-(4-(pyrimidin-5-yl)phenyl)butanamide] | > 10 | > 10 | > 10 | –
7 | O=C(CCCc1ccc(-c2cccnc2F)cc1)Nc1ccccc1 [Compound 1-20, 4-(4-(2-fluoropyridin-3-yl)phenyl)-N-phenylbutanamide] | 4.6 ± 0.2 | 6.6 ± 0.9 | > 10 | –
8 | CC[C@]1(O)C[C@@H]2CN(CCc3c([nH]c4ccccc34)[C@@](C(=O)OC)(c3cc4c(cc3OC)N(C)[C@H]3[C@@](O)(C(=O)OC)[C@H](OC(C)=O)[C@]5(CC)C=CCN6CC[C@]43[C@@H]65)C2)C1 [vinblastine] | – | – | – | effect on tubulin polymerisation compared to control (Porcine brain tubulin): inhibited tubulin polymerisation in a dose-dependent manner
9 | O=C(CCCc1ccc(Br)cc1)Nc1ccc(O)cc1 [Compound 1-17, 4-(4-bromophenyl)-N-(4-hydroxyphenyl)butanamide] | > 10 | > 10 | > 10 | –
10 | NCc1ccc(-c2ccc(CCCC(=O)Nc3ccc(O)cc3)cc2)cc1 [Compound 1-07, 4-(4′-(aminomethyl)-[1,1′-biphenyl]-4-yl)-N-(4-hydroxyphenyl)butanamide] | 1.5 ± 0.3 | 1.8 ± 0.3 | 3.1 ± 1 | –
11 | O=C(CCCc1ccc(-c2cccnc2)cc1)Nc1ccc(O)cc1 [Compound 1-38, N-(4-hydroxyphenyl)-4-(4-(pyridin-3-yl)phenyl)butanamide] | 1.2 ± 0.1 | 4.6 ± 0.8 | 4.3 ± 0.3 | –
12 | O=C(CCCc1ccc(-c2cccnc2F)cc1)Nc1ccc(O)cc1 [Compound 1-18, 4-(4-(2-fluoropyridin-3-yl)phenyl)-N-(4-hydroxyphenyl)butanamide] | 1.6 ± 0.2 | 1.4 ± 0.2 | 1.7 ± 0.1 | brain uptake / crossing of the BBB [7]: readily crossed the BBB; EC50 [5]: 2 µM
